Where two headings read alike, the source gives them in different places.
Tests used:
[1] = system: carrageenin edema in rat's paw; experiment: Carrageenin Edema Test in Rat's Paw (anti-inflammatory activity); type: in vivo, Female Wistar rats; conditions: for inhibition in vivo at 100 mg/kg: Rattus norvegicus, hydrochloric acid salts; for Inhibition values compared with comparative compounds: Table 1, 100 mg/kg
Procedure: A standard method of Carrageenin Edema Test in Rat's Paw described in C. A. Winter et al., Proc. Soc. Exp. Biol. Med., 111, 544 (1962) was employed.
[…] One hour later, the pad of a hind paw of the rat was injected with 0.1 ml of 1% aqueous carrageenin solution. The volume of the paw was measured both before the injection of carrageenin and three hours after the injection.
The edema inhibition percentage of the test compound was calculated from the ratio of the increase in the volume of the affected paw of the test animals to the increase in the volume of the affected paw of the controls.
The anti-inflammatory activity of the 3-aminoindazole derivative hydrochloric acid salts of this invention was measured.
The anti-inflammatory activity of the 3-aminoindazole derivative hydrochloric acid salts obtained by Examples 1-49 of this invention was measured by the standard method of carrageenin edema test. In these tests, the amount of the administration of the salts was 100 mg/kg. The results are shown in Table 17 (Inhibition (%) was measured three hours after the injection).

[2] = system: carrageenin-inflamed hind paw of the rat (pressure pain); experiment: Randall-Selitto Test (analgesic activity); type: in vivo, Female wister rats; conditions: 100 mg/kg, hydrochloric acid salts; water 0.8
Procedure: The Randall-Selitto analgesic activity test was carried out according to the general method described in J. O. Randall & J. J. Selitto, Arch. Int. Pharmacodyn, 111, 409 (1957). Female wister rats weighing 120-150 g were orally administered 50 mg/kg of the test compound as an aqueous solution. Thirty minutes later, the pad of a hind paw of the rat was injected with 0.1 ml of 1% aqueous carrageenin solution. Pressure was applied to the paw where edema was formed by Balance-type Pressure Device (Ugo Basile Company; Italy) 1, 2, 3 and 4 hours after the injection. The weight when the test animals began to struggle with pain was measured. The analgesic activity is represented by an analgesic coefficient which is obtained by dividing the average weight measured 1.5, 2.5, 3.5 and 4.5 hours after the administration by the applied weight prior to the administration.
The analgesic activity of the 3-aminoindazole derivative hydrochloric acid salts obtained by Examples 2, 6, 10, 18, 22 and 28 of this invention was measured by the standard method of Randall-Selitto test. In these tests, the amount of the administration of the salts was 100 mg/kg.

[3] = Acute toxicity (LD50), intravenous injection; conditions: mouse, in vivo, male ddY-strain mice, read-out: LD50, Table 19
Procedure: Acute toxicity was measured by an ordinary method described in Finney DJ Probit Analysis Cambridge University Press 48, (1952). Ddy mice weighing about 18 g on average, each group consisting of 10 animals, were […] injected with the physiological salt solution containing the test compound. The amount of the test compound administered was varied in 5-8 groups. Three days after the administration, dead animals were counted in each group. The amount of the test compound killing half the number of the animals (LD50) was calculated from the results.
The acute toxicity of the 3-aminoindazole derivatives and their hydrochloric acid salts obtained by Examples 1-49 of this invention was measured by giving male ddY-strain mice an intravenous injection.

gastric ulcer in rats = experiment: Anti-Ulcer Test: occurrence of gastric ulcer by test compound alone; type: in vivo, Male donryu rats
Procedure: Ulcer inhibition of 3-(3-diethylaminopropylamino)indazole (10) and 1-(3-piperidinopropyl)-3-aminoindazole (18), typical and preferred compounds of this invention, was measured.

[4] = system: gastric ulcer caused by indomethacin; conditions: for Ulcer index: rat, in vivo
Procedure: The test compound was suspended in 1% HCO-60 (trade name for polyoxyethylene hydrogenated castor oil; a product of Nikko Chemical Co., Ltd., Japan) at the concentration of 10 mg/ml. Male donryu rats weighing 150-160 g were orally administered 100 mg/kg of the test compound. The occurrence of gastric ulcer was examined 24 hours after the administration.
It is well known that the single use of acidic non-steroidal anti-inflammatory drugs causes a side effect in digestive tracts such as gastric ulcer.

[5] = system: acetic acid-induced writhing in mice; experiment: Acetic Acid-Writhing Test (analgesic activity); type: in vivo, Male ddy-strain mice; conditions: 100 mg/kg, oral, hydrochloric acid salts
Procedure: Acetic acid-writhing test was carried out according to Koster et al., Fed. Proc., 18, 412 (1959). […] Thirty minutes later, the mice were intraperitoneally injected with 0.1 ml/10 g of 0.7% acetic acid physiological salt solution as a stimulant. Ten minutes after the stimulant injection, writhing frequency as pain response was observed and recorded over 10 minutes.
The inhibition percentage of the test compound was represented as the ratio of the inhibition of the writhing frequency.
Analgesic activity of 3-aminoindazole derivative hydrochloric acid salts was measured by acetic acid-writhing test.

primary inflammation = conditions: Silvest et al., Arzneim-Forsch, 16, 59 (1966); cited from earlier work
[6] = po, 3 h, 100 mg/kg, measured three hours after the injection, read-out: Inhibition (carrageenin edema), Table 17
[7] = 100 mg/kg, oral, 3 h after carrageenin, read-out: Inhibition (carrageenin edema), Table 1
[8] = 100 mg/kg singly administered at one time, oral
[9] = 100 mg/kg compound together with 20 mg/kg of indomethacin
[10] = 100 mg/kg compound together with 10 mg/kg of indomethacin

Structure (SMILES) | inhibition in vivo at 100 mg/kg [1, 6] | inhibition in vivo at 100 mg/kg [1, 7] | Inhibition values compared with comparative compounds [1] | Analgesic Coefficient, Table 18 [2] | LD50 at 72 h [3] | Gastric ulcer occurrence (gastric ulcer in rats; [8]) | other results
CCN(CC)CCCNc1n[nH]c2ccccc12 [Compound (10), 3-(3-diethylaminopropylamino)indazole] | 66% | 66% | higher than that of the compound C-1 | 1.31 | 233 mg/kg | Gastric ulcer did not occur | Occurrence frequency in combination [4, 9]: not changed; Ulcer index in combination [4, 9]: 14.9 mm
Nc1nn(CCCN2CCCCC2)c2ccccc12 [Compound (18), 1-(3-piperidinopropyl)-3-aminoindazole] | 54% | 54% | higher than those of the compounds C-2 and C-3 | 1.38 | 102 mg/kg | Gastric ulcer did not occur | Inhibition (acetic acid-writhing), Table 3 [5]: 43%; Gastric ulcer occurrence (gastric ulcer in rats; administered for 5 days): gastric ulcer did not occur; Occurrence frequency in combination [4, 10]: not changed; Ulcer index in combination [4, 10]: 2.5 mm
CN(C)CCCOc1nn(Cc2ccccc2)c2ccccc12 [Compound C-4, 1-benzyl-3-(3-dimethylaminopropoxy)indazole, reference compound] |  |  |  |  |  |  | Inhibition (carrageenin edema), Table 2 ([1]; 25 mg/kg, oral): 8%; Inhibition (carrageenin edema), Table 2 ([1]; 50 mg/kg, oral): 20%; Inhibition (carrageenin edema), Table 2 ([1]; 100 mg/kg, oral): 51%; Effect against primary inflammation (primary inflammation): effective against primary inflammation
COc1ccc2c(c1)c(CC(=O)O)c(C)n2C(=O)c1ccc(Cl)cc1 [indomethacin, reference compound] |  |  |  |  |  |  | Ulcer index ([4]; 10 mg/kg): 10.2 mm; Ulcer index ([4]; 20 mg/kg): 34.3 mm

Reference: patent US4549023A, “3-Aminoindazole derivatives” (priority 1980, dated 1985)
